# Measurements taken from patent publication US7285536B2, “Anti-cancer therapeutic compounds” (Yeda Research and Development Co., Ltd., priority 2001, dated 2007).
# Test system: 3LL lewis lung carcinoma, variant D122
# Assay: 3LL Lewis lung carcinoma (D122) experimental lung metastasis in mice: survival and lung weight
# Format: in vivo, C57BL/6 mice
# Protocol: C57BL/6, 12 months old male mice were obtained from the Jackson Laboratory.
# Syngeneic, 3LL lewis lung carcinoma, variant D122, was obtained from the Weizmann Institute of Science. This tumor line develops metastases in the lungs after intravenous (iv) inoculation.
# Cells were cultured in DMEM medium containing high glucose and supplemented with 10% FCS, glutamine and penicillin.
# Cells were incubated 24 hr before inoculation into the mice with the different disaccharides (300 ng/ml) in culture medium. Then, the cells were washed and injected i. v., (500,000 cells per mouse) in 100 μl PBS containing 30 ng of the corresponding disaccharide.
# The number of dead mice was counted each day after the inoculation was performed. The mice were sacrificed at day 50 and the weights of their lung were determined.
# Each group, injected by one of the disaccharides, contained 16 mice. Control mice received PBS alone. The different disaccharides, were injected to the mice subcutaneously (30 ng per mouse in 0.1 ml of PBS), one day before and one and two days after cell inoculation.
# [1] = day 49 after 3LL injection, 16 mice per group, DS 30 ng per mouse s.c. one day before and one and two days after inoculation
smiles,measurement,setting,value
"CC1(C)OC(COS(=O)(=O)O)[C@@](C)(COC[C@@]2(C)OC(C(=O)O)=CC(O)C2OS(=O)(=O)O)C(O)C1N (stereo partly drawn) [DS 8892, α-ΔUA-2S-[1→4]-GlcN-6S]",responders at 30 ng,"Mus musculus, Lewis lung carcinoma, sc, 1176 h, day 49 after 3LL injection, [live mice/total mice] × 100, PBS control 6.2",25%
same,inhibition in vivo at 30 ng,"Mus musculus, Lewis lung carcinoma, sc, 1200 h, day 50 after 3LL injection, [1-(weights of treated group/weights of control group)] × 100, read-out: Decrease (%) of lung weight",28.8%
same,dead mice,[1],12
same,live mice,[1],4
same,Weights of lungs ± SD,"day 50 after 3LL injection, PBS 0.92",0.66 ± 0.18 gr.
same,anti-tumor treatment / inhibition of tumor development (in words),"mice inoculated i.v. with 3LL cells, treated with DS",did not inhibit the tumor development at all
